# Test system: patients after acute myocardial infarction
# Assay: Life quality, Seattle Angina Questionnaire (SAQ), same clinical trial
# Assay type: in vivo, human
# Description: 3508 patients who were in accordance with the diagnostic standards of AMI for 28 days to 2 years and differentiated as Qi deficiency and blood stagnation syndrome by TCM were studied. 0.5 g Chinese medicine composition prepared by the method of EXAMPLE 1 (Coded as QSYQ) was administrated half an hour after meal, 3 times per day.
# There were 19 questions in the Seattle angina questionnaire (SAQ), including 5 parts: physical limitation (PL), anginal stability (AS), anginal frequency (AF), treatment satisfaction (TS) and disease perception (DP). After being given necessary explanation by doctors, the questions were answered independently by patients.
# They included the overall survival time, angina pectoris score, TCM symptom score and life quality score, where angina pectoris score, TCM symptom score and life quality score were evaluated at randomization, in 1st, 3rd, 6th, 9th, 12th month after treatment and 18th month after follow-up.
# All evaluation results of SAQ were described during the period of observation, and Wilcoxon rank sum test was used for inter-group comparison.
# The evaluation results in the SAQ were depicted in different observations, and inter-group comparison was tested by Wilcoxon Rank-sum test.
structure (smiles),measurement,setting,value
"CC(=O)Oc1ccccc1C(=O)O [Control group, aspirine]","SAQ Question 1-5: Slightly limited, percent of patients","12 months after treatment, PP",(29.70%)
same,"SAQ Question 1-9: Mildly limited, % of cases","12 months after treatment, PP",(20.07%)
same,"SAQ Question 1-9: Mildly limited, cases","12 months after treatment, PP",278
same,"SAQ Question 1-9: Moderately limited, % of cases","12 months after treatment, PP",(20.87%)
same,"SAQ Question 1-9: Moderately limited, cases","12 months after treatment, PP",289
same,"SAQ Question 1-9: Not limited, % of cases","12 months after treatment, PP",(5.05%)
same,"SAQ Question 1-9: Not limited, cases","12 months after treatment, PP",70
same,"SAQ Question 1-9: Other reasons, % of cases","12 months after treatment, PP",(6.28%)
same,"SAQ Question 1-9: Other reasons, cases","12 months after treatment, PP",87
same,"SAQ Question 1-9: Severely limited, % of cases","12 months after treatment, PP",(29.75%)
same,"SAQ Question 1-9: Severely limited, cases","12 months after treatment, PP",412
same,"SAQ Question 1-9: Slightly limited, % of cases","12 months after treatment, PP",(17.98%)
same,"SAQ Question 1-9: Slightly limited, cases","12 months after treatment, PP",249
same,"SAQ 2nd question: Clearly increased, % of cases","Baseline, FAS",(3.17%)
same,"SAQ 2nd question: Clearly increased, cases","Baseline, FAS",55
same,"SAQ 2nd question: Clearly reduced, % of cases","Baseline, FAS",(12.46%)
same,"SAQ 2nd question: Clearly reduced, cases","Baseline, FAS",216
same,"SAQ 2nd question: Same, % of cases","Baseline, FAS",(62.09%)
same,"SAQ 2nd question: Same, cases","Baseline, FAS",1076
same,"SAQ 2nd question: Slightly increased, % of cases","Baseline, FAS",(6.92%)
same,"SAQ 2nd question: Slightly increased, cases","Baseline, FAS",120
same,"SAQ 2nd question: Slightly reduced, % of cases","Baseline, FAS",(15.35%)
same,"SAQ 2nd question: Slightly reduced, cases","Baseline, FAS",266
same,"SAQ 3rd question: 1-2 times per week, % of cases","Baseline, FAS",(15.35%)
same,"SAQ 3rd question: 1-2 times per week, cases","Baseline, FAS",266
same,"SAQ 3rd question: 1-3 times per day, % of cases","Baseline, FAS",(6.92%)
same,"SAQ 3rd question: 1-3 times per day, cases","Baseline, FAS",120
same,"SAQ 3rd question: <1 time per week, % of cases","Baseline, FAS",(12.46%)
same,"SAQ 3rd question: <1 time per week, cases","Baseline, FAS",216
same,"SAQ 3rd question: No onset, % of cases","Baseline, FAS",(0.00%)
same,"SAQ 3rd question: No onset, cases","Baseline, FAS",0
same,"SAQ 3rd question: ≧3 times per week, % of cases","Baseline, FAS",(62.09%)
same,"SAQ 3rd question: ≧3 times per week, cases","Baseline, FAS",1076
same,"SAQ 3rd question: ≧4 times per day, % of cases","Baseline, FAS",(3.17%)
same,"SAQ 3rd question: ≧4 times per day, cases","Baseline, FAS",55
same,"SAQ Question 1-3: Mildly limited, number of patients","Baseline, FAS",149
same,"SAQ Question 1-3: Mildly limited, percent of patients","Baseline, FAS",(8.57%)
same,"SAQ Question 1-3: Moderately limited, number of patients","Baseline, FAS",53
same,"SAQ Question 1-3: Moderately limited, percent of patients","Baseline, FAS",(3.05%)
same,"SAQ Question 1-3: Not limited, number of patients","Baseline, FAS",1170
same,"SAQ Question 1-3: Not limited, percent of patients","Baseline, FAS",(67.32%)
same,"SAQ Question 1-3: Other reasons, number of patients","Baseline, FAS",11
same,"SAQ Question 1-3: Other reasons, percent of patients","Baseline, FAS",(0.63%)
same,"SAQ Question 1-3: Severely limited, number of patients","Baseline, FAS",15
same,"SAQ Question 1-3: Severely limited, percent of patients","Baseline, FAS",(0.86%)
same,"SAQ Question 1-3: Slightly limited, number of patients","Baseline, FAS",340
same,"SAQ Question 1-3: Slightly limited, percent of patients","Baseline, FAS",(19.56%)
same,"SAQ Question 1-4: Mildly limited, number of patients","Baseline, FAS",402
same,"SAQ Question 1-4: Mildly limited, percent of patients","Baseline, FAS",(23.21%)
same,"SAQ Question 1-4: Moderately limited, number of patients","Baseline, FAS",208
same,"SAQ Question 1-4: Moderately limited, percent of patients","Baseline, FAS",(12.01%)
same,"SAQ Question 1-4: Not limited, number of patients","Baseline, FAS",495
same,"SAQ Question 1-4: Not limited, percent of patients","Baseline, FAS",(28.58%)
same,"SAQ Question 1-4: Other reasons, number of patients","Baseline, FAS",14
same,"SAQ Question 1-4: Other reasons, percent of patients","Baseline, FAS",(0.81%)
same,"SAQ Question 1-4: Severely limited, number of patients","Baseline, FAS",59
same,"SAQ Question 1-4: Severely limited, percent of patients","Baseline, FAS",(3.41%)
same,"SAQ Question 1-4: Slightly limited, number of patients","Baseline, FAS",554
same,"SAQ Question 1-4: Slightly limited, percent of patients","Baseline, FAS",(31.99%)
same,"SAQ Question 1-5: Mildly limited, number of patients","Baseline, FAS",357
same,"SAQ Question 1-5: Mildly limited, percent of patients","Baseline, FAS",(20.58%)
same,"SAQ Question 1-5: Moderately limited, number of patients","Baseline, FAS",238
same,"SAQ Question 1-5: Moderately limited, percent of patients","Baseline, FAS",(13.72%)
same,"SAQ Question 1-5: Not limited, number of patients","Baseline, FAS",567
same,"SAQ Question 1-5: Not limited, percent of patients","Baseline, FAS",(32.68%)
same,"SAQ Question 1-5: Other reasons, number of patients","Baseline, FAS",13
same,"SAQ Question 1-5: Other reasons, percent of patients","Baseline, FAS",(0.75%)
same,"SAQ Question 1-5: Severely limited, number of patients","Baseline, FAS",53
same,"SAQ Question 1-5: Severely limited, percent of patients","Baseline, FAS",(3.05%)
same,"SAQ Question 1-5: Slightly limited, number of patients","Baseline, FAS",507
same,"SAQ Question 1-5: Slightly limited, percent of patients","Baseline, FAS",(29.22%)
same,"SAQ Question 1-9: Mildly limited, % of cases","Baseline, FAS",(14.70%)
same,"SAQ Question 1-9: Mildly limited, cases","Baseline, FAS",249
same,"SAQ Question 1-9: Moderately limited, % of cases","Baseline, FAS",(21.19%)
same,"SAQ Question 1-9: Moderately limited, cases","Baseline, FAS",359
same,"SAQ Question 1-9: Not limited, % of cases","Baseline, FAS",(2.36%)
same,"SAQ Question 1-9: Not limited, cases","Baseline, FAS",40

# Reference: patent US9211310B2, “Use of a Chinese medicine composition in preparing medicaments for treating secondary prevention of myocardial infarction” (TASLY PHARMACEUTICAL GROUP CO., LTD, priority 2010, dated 2015)
